Test results reported in ChEMBL document CHEMBL1201862, “PubChem BioAssay data set” (2004).
Active and inactive are the calls of the source.

What was measured:
[1] = molecular target: T1, Nuclear receptor subfamily 0 group B member 1 (Homo sapiens, UniProt P51843); assay type: functional, cell-based;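 note: HEK293T cells transfected with SF-1 and DAX-1 plus StAR promoter luciferase reporter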
T1 sequence (P51843 whole entry): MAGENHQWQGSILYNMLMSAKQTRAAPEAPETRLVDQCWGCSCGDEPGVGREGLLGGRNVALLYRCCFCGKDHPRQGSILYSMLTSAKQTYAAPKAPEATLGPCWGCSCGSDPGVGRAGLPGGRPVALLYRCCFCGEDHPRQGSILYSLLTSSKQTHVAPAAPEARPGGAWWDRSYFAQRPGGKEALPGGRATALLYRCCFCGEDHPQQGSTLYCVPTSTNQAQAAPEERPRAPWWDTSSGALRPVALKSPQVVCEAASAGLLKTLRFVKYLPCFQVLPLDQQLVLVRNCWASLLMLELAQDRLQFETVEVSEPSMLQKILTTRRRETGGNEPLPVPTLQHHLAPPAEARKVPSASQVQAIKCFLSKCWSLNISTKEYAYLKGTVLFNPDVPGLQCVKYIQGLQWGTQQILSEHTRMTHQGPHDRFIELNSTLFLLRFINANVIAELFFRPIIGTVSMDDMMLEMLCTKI

cells [2] = assay type: functional, cell-based
[3] = HIV-1 Vif–A3G interaction blockers – biochemical, TR-FRET, GST-Vif 1-94, biotin-A3G peptide, dose response retest, primary screen (AID 1117319); assay type: functional;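 note: TR-FRET signal of purified GST-Vif binding a biotinylated A3G peptide; inhibitors lower the FRET signal by blocking Vif and A3G binding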
[4] = molecular target: Glutathione-S-transferase (Schistosoma japonicum, UniProt Q26513); assay: GST-antibody interaction or FRET quenching – biochemical, TR-FRET, artefact control for Vif-APOBEC3G degradation inhibitor project, dose response (AID 1117362); assay type: functional
Chain of Glutathione-S-transferase (Q26513 whole entry): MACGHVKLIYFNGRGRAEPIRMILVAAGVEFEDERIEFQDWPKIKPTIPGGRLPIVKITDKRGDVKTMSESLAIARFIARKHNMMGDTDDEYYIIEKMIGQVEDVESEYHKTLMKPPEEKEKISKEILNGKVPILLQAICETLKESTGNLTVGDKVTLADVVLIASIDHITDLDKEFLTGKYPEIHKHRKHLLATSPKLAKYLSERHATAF

BJ = assay: growth inhibition of engineered Ras-driven BJ cells – cell-based, alamar blue fluorescence, cherrypicked samples, dose response (AID 2631); assay type: functional; details: Homo sapiens;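 note: confirmatory dose-response assay in RAS-dependent BJ fibroblasts engineered with TERT, LT and ST, with cytotoxicity read by fluorescence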
Protein RecA = molecular target: T2, Protein RecA (Mycobacterium tuberculosis, UniProt P9WHJ3); assay: Fluorescence Cell-Free Homogeneous Dose Retest to Identify Inhibitors of RecA-Intein Splicing Activity. [Related pubchem assays (depositor defined):AID2097, AID2223, AID489010, AID492950]; assay type: functional
T2 sequence (P9WHJ3 whole entry): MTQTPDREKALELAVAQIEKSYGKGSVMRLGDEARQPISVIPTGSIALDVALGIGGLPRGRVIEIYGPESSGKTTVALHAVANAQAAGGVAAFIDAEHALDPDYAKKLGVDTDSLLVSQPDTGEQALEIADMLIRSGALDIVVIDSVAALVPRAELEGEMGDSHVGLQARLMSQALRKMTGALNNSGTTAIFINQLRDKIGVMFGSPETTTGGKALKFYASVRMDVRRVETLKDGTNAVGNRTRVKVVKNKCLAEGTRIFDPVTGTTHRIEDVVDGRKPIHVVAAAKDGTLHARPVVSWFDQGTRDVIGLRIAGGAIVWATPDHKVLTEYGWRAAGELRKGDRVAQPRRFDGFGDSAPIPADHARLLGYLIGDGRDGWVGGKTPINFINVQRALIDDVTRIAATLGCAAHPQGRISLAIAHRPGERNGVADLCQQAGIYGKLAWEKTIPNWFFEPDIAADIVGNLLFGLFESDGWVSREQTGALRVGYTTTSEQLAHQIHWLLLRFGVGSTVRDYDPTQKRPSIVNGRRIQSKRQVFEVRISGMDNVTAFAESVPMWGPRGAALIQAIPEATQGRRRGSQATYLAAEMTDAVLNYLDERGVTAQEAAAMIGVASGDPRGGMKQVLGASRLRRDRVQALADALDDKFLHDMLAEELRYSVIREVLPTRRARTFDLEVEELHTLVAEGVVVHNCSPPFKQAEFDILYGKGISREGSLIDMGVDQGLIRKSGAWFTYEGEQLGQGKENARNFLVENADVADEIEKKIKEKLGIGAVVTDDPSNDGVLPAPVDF

[5] = molecular target: T3, Replicative DNA helicase DnaB (Mycobacterium tuberculosis, UniProt P9WMR3); assay: DnaB intein splicing inhibitors, dose response, biochemical, cell-free fluorescence (AID 449749); assay type: functional
T3 sequence (P9WMR3 whole entry): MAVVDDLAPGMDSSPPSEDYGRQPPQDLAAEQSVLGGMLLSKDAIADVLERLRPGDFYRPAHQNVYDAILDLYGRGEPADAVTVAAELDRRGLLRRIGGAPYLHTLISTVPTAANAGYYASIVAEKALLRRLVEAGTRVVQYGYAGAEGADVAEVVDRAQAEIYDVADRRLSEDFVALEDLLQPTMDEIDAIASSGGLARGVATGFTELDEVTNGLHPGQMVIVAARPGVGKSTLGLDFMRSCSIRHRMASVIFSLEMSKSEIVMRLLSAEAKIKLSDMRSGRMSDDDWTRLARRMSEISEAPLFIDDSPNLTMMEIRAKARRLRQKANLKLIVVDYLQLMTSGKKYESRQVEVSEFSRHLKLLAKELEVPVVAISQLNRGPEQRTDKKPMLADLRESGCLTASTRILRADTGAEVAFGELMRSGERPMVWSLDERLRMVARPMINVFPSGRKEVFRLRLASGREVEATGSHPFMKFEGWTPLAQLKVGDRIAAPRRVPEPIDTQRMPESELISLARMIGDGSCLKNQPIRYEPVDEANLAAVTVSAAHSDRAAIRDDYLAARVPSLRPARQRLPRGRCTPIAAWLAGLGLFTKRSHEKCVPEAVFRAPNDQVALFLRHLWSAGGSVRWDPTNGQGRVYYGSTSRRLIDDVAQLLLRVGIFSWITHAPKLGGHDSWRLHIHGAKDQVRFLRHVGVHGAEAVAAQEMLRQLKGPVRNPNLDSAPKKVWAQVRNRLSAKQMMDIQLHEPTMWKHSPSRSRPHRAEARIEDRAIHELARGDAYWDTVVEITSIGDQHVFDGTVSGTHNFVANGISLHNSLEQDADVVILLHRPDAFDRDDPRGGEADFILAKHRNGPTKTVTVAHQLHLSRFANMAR

[6] = Luminescent dose response cell-based high throughput screening assay for inhibitors of the Janus kinase 2 mutant JAK2V617F. [Related pubchem assays: 1446 (Primary screen.), 1521 (Confirmation assay.), 1486 (Counter screen.)]; assay type: functional
[7] = viability of HCT116 lacking mutant beta-catenin – cell-based, human colon tumor, dose response (AID 1045); assay type: functional;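 note: HCT116 colon tumor cells with beta catenin knocked out; cells exposed to compound for 60 hours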
[8] = viability of PTEN-deleted HCT116 cells – cell-based, HCT116 PTEN knockout, dose response (AID 1047); assay type: functional;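 note: HCT116 colon tumor cells with PTEN knocked out; cells exposed to compound for 60 hours before readout; potency for loss of cell viability measured by luminescence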
[9] = Intein inhibitors as potential Tuberculosis drugs, a cytotoxicity screen. [Related pubchem assays (depositor defined):AID2221, AID2223, AID434968, AID435010, AID449749, AID449750, AID489010]; assay type: functional
cells [10] = assay type: functional, cell-based; details: HEK-CNG
Galanin receptor type 3 = Galanin receptor type 3 (Homo sapiens, UniProt O60755); assay: Fluorescence-based cell-based primary high throughput dose response assay to identify antagonists of the Galanin Receptor 3 (GalR3).; assay type: functional
Chain of Galanin receptor type 3 (O60755 whole entry): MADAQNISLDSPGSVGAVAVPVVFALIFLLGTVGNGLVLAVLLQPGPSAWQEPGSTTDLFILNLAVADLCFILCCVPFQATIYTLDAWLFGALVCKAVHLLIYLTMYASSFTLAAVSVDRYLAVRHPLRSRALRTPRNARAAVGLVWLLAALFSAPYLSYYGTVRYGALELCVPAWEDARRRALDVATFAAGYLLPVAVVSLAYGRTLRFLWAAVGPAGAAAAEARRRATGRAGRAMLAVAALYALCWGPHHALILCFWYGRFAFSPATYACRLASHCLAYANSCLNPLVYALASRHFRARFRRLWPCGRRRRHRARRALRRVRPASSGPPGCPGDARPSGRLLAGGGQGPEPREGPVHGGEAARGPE

[11] = rise of 2N DNA cells, HeLa – IC50, dose response (AID 1117349); assay type: functional, cell-based
[12] = rise of 4N DNA cells, HeLa – IC50, dose response (AID 1117351); assay type: functional, cell-based
[13] = HIV-1 AD8 envelope cell-cell fusion blockers – cherry-pick, dose response (AID 652062); assay type: functional, cell-based;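 note: luciferase signal from cell-cell fusion driven by HIV-1 clade B AD8 Env; potency is for inhibitors of fusion seen as a drop in luminescence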
[14] = blockers of HIV-1 envelope-mediated cell-cell fusion – cherry-pick, dose response (AID 652057); assay type: functional, cell-based
[15] = PAX8-dependent cell viability loss – plate reader, dry powder, dose response (AID 743049); assay type: functional, cell-based
[16] = COV434 cell viability loss – plate reader, dry powder, SA7, cytotoxicity control for PAX8 inhibitor project, dose response (AID 743145); assay type: functional, cell-based
Paired box protein Pax-8 = Paired box protein Pax-8 (Homo sapiens, UniProt Q06710); assay: PAX8 transcriptional activity inhibition in RMG-I – RMG-I cells, luciferase, cherry-pick, dose response (AID 687027); assay type: functional, cell-based;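 note: luciferase reporter driven by Pax8 target thyroperoxidase promoter measured by SteadyGlo luminescence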
Chain of Paired box protein Pax-8 (Q06710 whole entry): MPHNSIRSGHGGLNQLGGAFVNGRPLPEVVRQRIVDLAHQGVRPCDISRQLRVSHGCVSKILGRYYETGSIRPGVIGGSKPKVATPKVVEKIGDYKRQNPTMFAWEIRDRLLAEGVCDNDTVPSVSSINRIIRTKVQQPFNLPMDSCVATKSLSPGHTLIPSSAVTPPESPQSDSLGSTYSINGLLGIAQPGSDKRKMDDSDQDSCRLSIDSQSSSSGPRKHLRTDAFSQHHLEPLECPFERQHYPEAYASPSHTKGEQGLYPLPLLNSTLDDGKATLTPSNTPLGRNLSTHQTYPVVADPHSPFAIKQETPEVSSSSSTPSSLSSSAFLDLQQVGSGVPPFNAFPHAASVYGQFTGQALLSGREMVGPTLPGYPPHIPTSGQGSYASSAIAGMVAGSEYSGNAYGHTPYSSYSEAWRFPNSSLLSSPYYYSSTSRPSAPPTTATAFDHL

[17] = OV-90 cell viability loss – plate reader, dry powder, SA8, PAX8 inhibitor project, dose response (AID 743149); assay type: functional, cell-based
[18] = PAX5 cellular inhibition readout – cell-based, plate reader, dry powder samples, selectivity assay for PAX8 inhibitor project, dose response (AID 743047); assay type: functional;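 note: HEK293 cells carrying a Pax5 driven CD19 promoter luciferase reporter; potency of inhibitors that lower reporter luminescence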
[19] = inhibitors acting on PAX2 in cells – cell-based, plate reader, dry powder samples, selectivity assay for PAX8 inhibitor project, dose response (AID 743048); assay type: functional;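 note: HEK293 cells carrying a WT1 promoter luciferase reporter driven by expressed Pax2; potency is for inhibition of Pax2 driven reporter signal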
[20] = OVCAR4 cell viability loss – plate reader, dry powder, SA11, cytotoxicity control for PAX8 inhibitor project, dose response (AID 743150); assay type: functional, cell-based; details: OVCAR-4
[21] = IGROV1 cell killing – plate reader, dry powder samples, PAX8 inhibitor project, dose response (AID 743043); assay type: functional, cell-based; details: IGROV-1
[22] = OVCAR-3 cell viability loss – plate reader, dry powder samples, PAX8 inhibitor project, dose response (AID 743044); assay type: functional, cell-based
[23] = OVCAR8 cell viability loss – plate reader, dry powder samples, PAX8 project, dose response (AID 743197); assay type: functional, cell-based; details: OVCAR-8
[24] = toxicity toward immortalized ovarian surface epithelium – cell-based, plate reader, dry powder samples, cytotoxicity control for PAX8 inhibitor project, dose response (AID 743045); assay type: functional
[25] = A2780 cell killing – plate reader, dry powder samples, cytotoxicity control, dose response (AID 743046); assay type: functional, cell-based
cells [26] = assay type: functional
[27] = THP-1 cell cytotoxicity, dose response, cytotoxicity control for non-replicating M. tuberculosis project (AID 489025); assay type: functional

Compound: COc1ccc(C=C2CCc3ccccc3C2=O)cc1
- IC50 [1]: > 67.6 µM (inactive)
- IC50 (cells [2]): > 67.6 µM (inactive)

Compound: O=C(COC(=O)C12CC3CC(CC(Br)(C3)C1)C2)Nc1ccc2[nH]c(O)nc2c1
- IC50 [3]: > 100 µM (active)
- IC50 [4]: 73.5 µM (active)

Compound: COc1cccc(N(C(=O)CCl)C(C(=O)NCCc2ccccc2)c2cccs2)c1 (centres undefined)
- EC50 (BJ): 3.95 µM (active)
- EC50 (Protein RecA): 0.329 µM (active)
- AC50 [5]: 2.11 µM (active)
- IC50 [6]: 0.581 µM (active)
- EC50 [7]: 1.48 µM (active)
- EC50 [8]: 1.59 µM (active)
- CC50 [9]: 0.2 µM (active)

Compound: N#Cc1cc(-c2ccccc2)oc1NC(=O)c1ccco1
- EC50 (cells [10]): > 29.9 µM (inactive)
- IC50 (Galanin receptor type 3): 8.23 µM (active)

Compound: NCCNc1ccc(NCCN)c2c1C(=O)c1ccncc1C2=O [PIXANTRONE]
- IC50 [11]: 0.042 µM (active)
- IC50 [12]: 0.0483 µM (active)

Compound: N#C[C@@H]1[C@H](c2ccc(-c3ccccc3F)cc2)[C@@H](CO)N1C(=O)Cc1ccccc1
- AC50 [13]: 19.8 µM (active)
- AC50 [14]: 35 µM (active)
- AC50 [15]: 20.3 µM (active)
- AC50 [16]: > 70 µM (inactive)
- AC50 (Paired box protein Pax-8): 17.3 µM (active)
- AC50 [17]: 56.2 µM (active)
- AC50 [18]: 26.2 µM (active)
- AC50 [19]: 23.8 µM (active)
- AC50 [20]: 30.4 µM (active)

Compound: Cc1ccc(S(=O)(=O)N(C)C[C@@H]2Oc3ccc(NC(=O)Nc4ccc(C(F)(F)F)cc4)cc3CC(=O)N([C@@H](C)CO)C[C@@H]2C)cc1
- AC50 [21]: 1.16 µM (active)
- AC50 [22]: 0.584 µM (active)
- AC50 [23]: 5.91 µM (active)
- AC50 (Paired box protein Pax-8): 0.799 µM (active)
- AC50 [24]: 0.483 µM (active)
- AC50 [25]: 3.88 µM (active)

Compound: CC(C)(C)NC(=O)COC(=O)c1snc(C(=O)NC2CCCCC2)c1N
- IC50 (cells [26]): 4.33 µM (active)
- CC50 [27]: > 40 µM (active)
- EC50 (cells [10]): > 29.9 µM (inactive)
- IC50 (Galanin receptor type 3): 1.95 µM (active)
